A short description of one data set: in vivo. The conditions noted are these: rat, iv, 20 mg/kg. The method, then:
The purpose of this example was to assess the pharmacokinetics, distribution, and excretion of ^14C-BCC03-5RMP (SEQ ID NO:23) following a single intravenous administration to male rats. Pharmacokinetic, excretion, and distribution profiles of ^14C-BCC03-5RMP-derived radioactivity were examined in male Sprague Dawley rats following a single intravenous administration of ^14C-BCC03-5RMP (20 mg/kg; 125 μCi/kg). ^14C-BCC03-5RMP was formulated in 5% (v:v) dextrose in water, pH 5.5 and was administered at a dose volume of 5 mL/kg. For assessment of pharmacokinetics of total radioactivity (Group 1), blood was collected at 0.25, 0.5, 1, 2, 4, 8, 24, 48, and 72 hours postdose. For assessment of excretion profiles, urine was collected from 0-8 and 8-24 hours postdose, and at 24-hour intervals through 168 hours postdose. Feces was collected at 24-hour intervals through 168 hours postdose. For assessment of distribution profiles, one animal/time point was sacrificed at 0.25, 1, 4, 24, and 72 hours postdose, and the carcasses were prepared for quantitative whole-body autoradiography (QWBA). Concentrations of radioactivity in whole blood, plasma, urine, feces (after oxidation), cage rinse, cage wash, and carcass were determined by liquid scintillation counting (LSC). Tissue concentrations were calculated by interpolation from each standard curve using MCID™ analysis software (InterFocus Imaging Ltd Corp., UK). Pharmacokinetic parameters for total radioactivity in blood and plasma were calculated using WinNonlin Professional Edition (version 5.2, Pharsight Corporation, St. Louis, Mo.).

The test system of data set [1] is Pseudomonas aeruginosa ATCC® 27853™. The data set is classed as cell-based. The following applies: for Effects of Peptide Compounds on Pseudomonas aeruginosa ATCC ® 27853 ™: Table 6, 5 × 10^3 CFU/ml unless italicized = 1 × 10^5 CFU/ml. The method, then:
(§1) The three peptide compounds BCC01-5RMP (SEQ ID NO:21), BCC02-5RMP (SEQ ID NO:22), and BCC03-5RMP (SEQ ID NO:23) were assayed for in vitro bactericidal activity against Pseudomonas aeruginosa, Escherichia coli, Salmonella typhimurium, and Acinetobacter baumannii. […] The CFU remaining at the end of 60 to 180 minute incubation was determined, and the data plotted as a log reduction in CFU/ml.
(§2) Tables 4-6 show the results of various peptides and peptide compounds against P. aeruginosa and E. coli strains. Tables 4 and 5 show the results of an investigation of the effects of peptide or peptide compounds BCC03-5RMP (SEQ ID NO:23), BCC03-MP (SEQ ID NO:24) and BCC03-5R (SEQ ID NO:20) against P. aeruginosa ATCC® strain 27853™ and E. coli ATCC® strain 25922™ (American Type Culture Collection, Manassas, Va.). […] Table 6 compares the activity of several other compounds, including the “5R” versions of BCC01, i.e., SEQ ID NO:18 (which comprises SEQ ID NO:1 with five additional arginines), the “5R” version of BCC02 (i.e., SEQ ID NO:19, which comprises SEQ ID NO:2 with five additional arginines), and BCC03-5RMP (SEQ ID NO:23), and BCC03-MP (SEQ ID NO:24, i.e., without the five additional R residues). The data generally indicate the superiority of BCC03-5RMP (SEQ ID NO:23) against E. coli, and the superiority of the 5R or 5RMP versions of the peptide over the “AEEA only” peptide against P. aeruginosa.
(§3) For FIGS. 10-13, in vitro bactericidal assays were performed using a starting inoculum of 1×10^6 CFU/ml of the bacterial suspension. The CFU remaining at the end of the 60-180 minute incubation was determined, and the data was plotted as log reduction in CFU/ml.
(§4) In particular, each of the test peptides (CAP37 peptides 120-146WR, 120-146WH, and 95-122 (SEQ ID NOs: 30, 31, and 26, respectively)) was used at 25, 12.5, 6.25, and 3.12 μM. Gentamicin was used at 4 μg/ml. 1×10^6/ml Acinetobacter baumannii ATCC® BAA-747″ or Pseudomonas aeruginosa ATCC® 27853™ (American Type Culture Collection, Manassas, Va.) were incubated with the peptides, negative buffer control (tryptone saline), and positive control gentamicin at pH 5.5 or 7.2. A 60 minute incubation was used for Acinetobacter baumannii ATCC® BAA747™, while a 180 minute incubation was used for Pseudomonas aeruginosa ATCC® 27853™. 50 μl aliquots were plated out on agar plates and incubated overnight. Colony forming units were counted after overnight incubation and CFU/ml calculated.
For FIG. 14, 1×10^6/ml Pseudomonas aeruginosa ATCC® 27853™ were incubated with each of the test peptides (CAP37 peptides 120-146WR, 120-146WH, 120-146QR, 120-146QH, 120-146QR-5RMP, and 120-146QH-5RMP (SEQ ID NOs: 30, 31, 28, 29, 32, and 33, respectively)) at 150, 75, and 37.5 μg/ml, or negative buffer control (tryptone saline), for 180 minutes at pH 5.5. 50 μl aliquots were plated out on agar plates and incubated overnight. Colony forming units were counted after overnight incubation and CFU/ml calculated.

Data set [2] relates to E. coli ATCC® strain 25922™. Type of data set: cell-based, Escherichia coli. The conditions noted are these: Table 6, 5 × 10^3 CFU/ml unless italicized = 1 × 10^5 CFU/ml. Also on record: Effects of Peptide Compounds on Escherichia coli ATCC ® 25922 ™: unit not given here. The method, then: as §1, §2
Data set [3] deals with Acinetobacter baumannii ATCC® BAA-747™. In words: In vitro bactericidal assay (CFU remaining, log reduction). The data set is classed as cell-based. The following applies: 60 minutes, peptides up to 25 μM, gentamicin 4 μg/ml. The method, then: The three peptide compounds BCC01-5RMP (SEQ ID NO:21), BCC02-5RMP (SEQ ID NO:22), and BCC03-5RMP (SEQ ID NO:23) were assayed for in vitro bactericidal activity against Pseudomonas aeruginosa, Escherichia coli, Salmonella typhimurium, and Acinetobacter baumannii. The starting inoculum for all experiments was 1×10^6 colony forming units (CFU)/ml. The CFU remaining at the end of 60 to 180 minute incubation was determined, and the data plotted as a log reduction in CFU/ml.
as §3, §4

Read-outs that look alike come from different tables or passages of the source. Square brackets hold non-standard residues; d marks the D form. Ends that are not written are not given here. Peptide text beside a SMILES is read from it. AEEA = NCCOCCOCC(=O)O

`CC[C@H](C)[C@H](NC(=O)[C@H](CC(C)C)NC(=O)[C@H](C)NC(=O)CNC(=O)CNC(=O)[C@H](CS)NC(=O)[C@H](Cc1ccccc1)NC(=O)[C@H](Cc1c[nH]cn1)NC(=O)[C@H](CCCNC(=N)N)NC(=O)CNC(=O)[C@H](CCC(N)=O)NC(=O)[C@H](CC(N)=O)NC(=O)[C@H](CCCNC(=N)N)NC(=O)[C@H](CCCNC(=N)N)NC(=O)[C@H](CCCNC(=N)N)NC(=O)[C@H](CCCNC(=N)N)NC(=O)COCCOCCNC(=O)COCCOCCN)C(=O)N[C@@H](Cc1c[nH]cn1)C(=O)N[C@@H](C)C(=O)N[C@@H](CCCNC(=N)N)C(=O)N[C@@H](Cc1ccccc1)C(=O)N[C@H](C(=O)N[C@@H](CCSC)C(=O)N[C@H](C(=O)N[C@@H](C)C(=O)N[C@@H](C)C(=O)N[C@@H](CO)C(=O)N[C@@H](CO)C(=O)N[C@@H](Cc1ccccc1)C(=O)N[C@@H](CCC(N)=O)C(=O)N[C@@H](CCCNC(=N)N)C(=O)O)[C@@H](C)O)C(C)C` [^14C-BCC03-5RMP] (H-[AEEA][AEEA]RRRRNQGRHFCGGALIHARFVMTAASSFQR-OH; N-terminus and C-terminus assumed): the blood plasma ratio in “in vivo” (male, Sprague Dawley, total radioactivity) lay within 0.689 to 3.11. Moreover, in the data set “in vivo”, the “C0, Radio-equivalents in blood” value is given as 38500 ± 2160 ng eq/g; the “C0, Radio-equivalents in plasma” value worked out at 51800 ± 4160 ng eq/g; the “Clearance of radioactivity, plasma relative to blood” value is “approximately 2 fold”; the “blood:brain barrier passage of radioactivity” value is on record as “crossed the blood:brain barrier”. Besides, in the data set “in vivo”, the “blood:testis barrier passage of radioactivity” value is on record as “crossed the blood:testis barrier”; the “exposure (AUC0-∞), blood relative to plasma” value is reported as “approximately 2 fold”; the “tissue:plasma concentration ratios, majority of tissues” value is on record as “greater than one”; the “tissue:plasma concentration ratios, renal, adrenal, pancreatic, and pituitary tissues” value is given as “up to 103”. Further, the “volume of distribution of total radioactivity, blood relative to plasma” value in “in vivo” is reported as “approximately 1.6 fold”.
In the case of “RRRRNQGRHFCGGALIHARFVMTAASCFQR (also: cyclized) [SEQ ID NO: 18 (Cyclized)]”, the “Effects of Peptide Compounds on Pseudomonas aeruginosa ATCC ® 27853 ™” value in data set [1] (0.78 μg/ml) came out at 99.6; in data set [1] (1.56 μg/ml), 98.4; in data set [1] (3.125 μg/ml), 100.0; in data set [1] (6.25 μg/ml) it was 100.0; in data set [1] (12.5 μg/ml), 100.0; in data set [1] (25 μg/ml), 100.0. For the same compound, the “Effects of Peptide Compounds on Pseudomonas aeruginosa ATCC ® 27853 ™” value in data set [1] (50 μg/ml), in data set [1] (100 μg/ml), in data set [1] (200 μg/ml) and in data set [1] (400 μg/ml) was 100.0 each time. Besides, the “Effects of Peptide Compounds on Escherichia coli ATCC ® 25922 ™” value (from here on “Effects … on Escherichia coli ATCC ® 25922 ™”) in data set [2] (12.5 μg/ml) is recorded as 37.9; in data set [2] (25 μg/ml), 38.0; in data set [2] (50 μg/ml), 49.3; in data set [2] (100 μg/ml) it was 52.6; in data set [2] (200 μg/ml), 59.6; in data set [2] (400 μg/ml), 82.0.
As for gentamicin [reference compound], the “activity against P. aeruginosa” value in data set [1] (120-146WR at 25 μM, gentamicin 4 μg/ml) is “highly active”. The “reduction of CFU/ml” value in data set [1] (pH 5.5, 180 minutes, highest concentrations of peptides (25 μM), gentamicin 4 μg/ml) is given as 2 logs. Moreover, the “bactericidal activity against Acinetobacter baumannii” value is listed as “unable to kill the bacteria” in data set [3] (pH 5.5) and “active against the bacteria” in data set [3] (pH 7.2).
Regarding `CC[C@H](C)[C@H](NC(=O)[C@H](CC(C)C)NC(=O)[C@H](C)NC(=O)CNC(=O)CNC(=O)[C@H](CS)NC(=O)[C@H](Cc1ccccc1)NC(=O)[C@H](Cc1c[nH]cn1)NC(=O)[C@H](CCCNC(=N)N)NC(=O)CNC(=O)[C@H](CCC(N)=O)NC(=O)[C@H](CC(N)=O)NC(=O)COCCOCCNC(=O)COCCOCCN)C(=O)N[C@@H](Cc1c[nH]cn1)C(=O)N[C@@H](C)C(=O)N[C@@H](CCCNC(=N)N)C(=O)N[C@@H](Cc1ccccc1)C(=O)N[C@H](C(=O)N[C@@H](CCSC)C(=O)N[C@H](C(=O)N[C@@H](C)C(=O)N[C@@H](C)C(=O)N[C@@H](CO)C(=O)N[C@@H](CO)C(=O)N[C@@H](Cc1ccccc1)C(=O)N[C@@H](CCC(N)=O)C(=O)O)[C@@H](C)O)C(C)C` [BCC03-MP] (H-[AEEA][AEEA]NQGRHFCGGALIHARFVMTAASSFQ-OH; N-terminus and C-terminus assumed), the “Effects of Peptide Compounds on Pseudomonas aeruginosa ATCC ® 27853 ™” value in data set [1] (6.25 μg/ml) is on record as −38.2; in data set [1] (12.5 μg/ml) it was -45.6; in data set [1] (25 μg/ml), −27.3; in data set [1] (50 μg/ml), −2.9; in data set [1] (100 μg/ml), 44.0; in data set [1] (200 μg/ml), 74.4. Besides, in data set [1] (400 μg/ml), the “Effects of Peptide Compounds on Pseudomonas aeruginosa ATCC ® 27853 ™” value is 92.8. Also, the “Effects … on Escherichia coli ATCC ® 25922 ™” value in data set [2] (6.25 μg/ml) was 6.4; in data set [2] (12.5 μg/ml), 21.8; in data set [2] (25 μg/ml) it was 27.2; in data set [2] (50 μg/ml), 24.6; in data set [2] (100 μg/ml), 27.5; in data set [2] (200 μg/ml), 46.0. For the same compound, the “Effects … on Escherichia coli ATCC ® 25922 ™” value in data set [2] (400 μg/ml) is 58.2.

(Values after patent US9603896B2, “Peptide compounds and methods of production and use thereof” (priority 2012, dated 2017).)
